For series [1], the system named is S. epidermidis. As to the kind of experiment: photoactivity assay, irradiation with 652 nm laser. It counts as cell-based, Staphylococcus epidermidis. The following applies: 652 nm laser 47 min, 30 J/cm2, 2c and 2d at 64 μg/mL, others at MIC. The procedure:
Upon incubation of 1.5–2 h with the products, the samples were irradiated for 47 min with a 652 nm laser (to obtain 1.70 W, 30 J/cm^2). Upon irradiation, the cells were plated and incubated overnight at 35 °C on Mueller Hinton Agar (BD, 225250, New York, NY, USA).

For series [2], the system named is MRC-5 cells. As to the kind of experiment: cytotoxicity, MTT assay. It counts as cell-based, human. Conditions: MRC5; cytotoxicity, human lung fibroblasts, 24 h, MTT. The procedure: The cytotoxicity of the products was tested on MRC-5 cells (lung fibroblasts, ATCC CCL-171) with a seeding concentration of 10,000 cells/well. The products were diluted with a 2% FSC MEM medium (Sigma, M4655, Missouri, MO, USA) to concentrations ranging from 1 to 256 μg/mL and incubated with 80% confluent cells for 24 h. The following day, a 3-[4,5-dimethylthiazol-2-yl]-2,5-diphenyl tetrazolium bromide (MTT) assay was performed, and the optical density of the samples was measured at 540 nm.
In general terms: Tetrazolium dyes change colour on reduction, which living cells bring about.

For series [3], the target named is E. coli γ (Escherichia coli, UniProt P0A9W9). It counts as biochemical. Conditions: stopped-flow CO2 hydrase assay, pH 8.4, mean from 3 assays. The procedure:
(§1) The CA isoforms belong to different classes of CA enzymes characterized by different kinetic and structural features to assess isoform selectivity.
(§2) An Applied Photophysics stopped-flow instrument was used to assay CA-catalyzed CO2 hydration activity. […] The uncatalyzed rates were determined in the same manner and subtracted from the total observed rates. Stock solutions of the inhibitor (0.1 mM) were prepared in distilled–deionized water, and dilutions up to 0.01 nM were done thereafter with the assay buffer. Inhibitor and enzyme solutions were preincubated together for 15 min at room temperature prior to the assay to allow for the formation of the E–I complex. The inhibition constants were obtained by non-linear least-squares methods using PRISM 3 and the Cheng–Prusoff equation as reported earlier and represent the mean from at least three different determinations. All CA isoforms were recombinant proteins obtained in house, as reported earlier.

The target in series [4] is T1, E. coli β (Escherichia coli, UniProt P61517).
T1 construct: made in house
T1 sequence (P61517 whole entry): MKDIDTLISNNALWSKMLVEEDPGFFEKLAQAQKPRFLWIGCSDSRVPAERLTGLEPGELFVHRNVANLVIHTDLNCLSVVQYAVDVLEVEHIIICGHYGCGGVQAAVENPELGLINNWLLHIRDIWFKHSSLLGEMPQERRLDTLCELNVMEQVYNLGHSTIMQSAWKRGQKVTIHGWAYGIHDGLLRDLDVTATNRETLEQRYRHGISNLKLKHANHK
As to the kind of experiment: stopped-flow CO2 hydrase assay, E. coli β. It counts as biochemical. Conditions: pH 8.4, mean from 3 assays. The protocol:
as §1
An Applied Photophysics stopped-flow instrument was used to assay CA-catalyzed CO2 hydration activity. Phenol red (at a concentration of 0.2 mM) was used as an indicator, working at the absorbance maximum of 557 nm, with 20 mM Hepes (pH 7.4 for α-class and pH 8.4 for β- and γ-classes) as a buffer and 20 mM Na2SO4 (to maintain constant the ionic strength), following the initial rates of the CA-catalyzed CO2 hydration reaction for a period of 10–100 s. The CO2 concentrations ranged from 1.7 to 17 mM for the determination of the kinetic parameters and inhibition constants. Enzyme concentrations ranged between 5 and 12 nM. For each inhibitor, at least six traces of the initial 5–10% of the reaction were used to determine the initial velocity. The uncatalyzed rates were determined in the same manner and subtracted from the total observed rates. Stock solutions of the inhibitor (0.1 mM) were prepared in distilled–deionized water, and dilutions up to 0.01 nM were done thereafter with the assay buffer. Inhibitor and enzyme solutions were preincubated together for 15 min at room temperature prior to the assay to allow for the formation of the E–I complex. The inhibition constants were obtained by non-linear least-squares methods using PRISM 3 and the Cheng–Prusoff equation as reported earlier and represent the mean from at least three different determinations. All CA isoforms were recombinant proteins obtained in house, as reported earlier.

The subject of series [5] is S. aureus. As to the kind of experiment: MIC and MBC test (NF EN ISO 20776-1), S. aureus. The class given is cell-based, Staphylococcus aureus. The procedure:
(§3) Derivatives 2a–f were dissolved in DMSO and further diluted with distilled water to the required final concentration. The microorganisms (E. faecalis, S. aureus, and S. epidermidis reported in Table 4) were cultured overnight at 35 °C in Mueller Hinton Broth 2, Cation-Adjusted (BD, BD 212322, New York, NY, USA) and adjusted to 0.5 McFarland, according to standardized guidelines NF EN ISO 20776-1 [23]. The minimal inhibitory concentration (MIC) test was performed according to the standardized guidelines NF EN ISO 20776-1 [23]. Once the MIC was obtained, the minimal bactericidal concentration (MBC) test was performed.

Series [6] addresses T2, hCA II (Homo sapiens, UniProt P00918).
T2 construct: made in house
As to the kind of experiment: stopped-flow CO2 hydrase assay, hCA II. The class given is biochemical. The following applies: pH 7.4, mean from 3 assays. The procedure: as §1, §2

Series [7] has as its system S. epidermidis. As to the kind of experiment: MIC and MBC test (NF EN ISO 20776-1), S. epidermidis. It counts as cell-based, Staphylococcus epidermidis. The procedure:
as §3

The target in series [8] is T3, PsCA3 (Pseudomonas aeruginosa, UniProt Q9HVB9).
T3 construct: made in house
T3 sequence (Q9HVB9 1-215): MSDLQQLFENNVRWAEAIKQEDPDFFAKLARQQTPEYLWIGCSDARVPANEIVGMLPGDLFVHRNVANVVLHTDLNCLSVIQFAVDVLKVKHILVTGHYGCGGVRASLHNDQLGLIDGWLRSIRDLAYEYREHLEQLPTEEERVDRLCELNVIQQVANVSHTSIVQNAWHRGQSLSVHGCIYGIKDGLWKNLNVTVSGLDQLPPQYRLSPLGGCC
As to the kind of experiment: biochemical. Conditions: stopped-flow CO2 hydrase assay, mean from 3 assays. The procedure:
as §1, §2

Series [9] addresses PsCA1 (Pseudomonas aeruginosa, UniProt Q9I730). As to the kind of experiment: biochemical. Conditions: stopped-flow CO2 hydrase assay, mean from 3 assays. The protocol: as §1, §2
For series [10], the system named is human red blood cells. As to the kind of experiment: hemolysis assay. Conditions: 0.5–150 µg/mL, 30 min 37 °C, compared with 0.01% Tween 20. It counts as cell-based. The protocol:
Blood collected at CHU Nancy was washed three times with PBS, and 10^7 cells/mL were incubated for 30 min at 37 °C with the newly synthesized compounds. The derivatives were previously diluted to the range from 0.5 to 75/150 μg/mL with PBS. As a positive control, cells were resuspended with 0.01% polysorbate 20 (Tween 20). Tween 20 has often been used as a reference compound for cell lysis. Upon incubation, the samples were centrifuged for 5 min at 800× g, and the supernatant was collected for optical density reading at 540 nm.

In series [11] the target is T4, hCA I (Homo sapiens, UniProt P00915).
T4 construct: made in house
T4 sequence (P00915 whole entry): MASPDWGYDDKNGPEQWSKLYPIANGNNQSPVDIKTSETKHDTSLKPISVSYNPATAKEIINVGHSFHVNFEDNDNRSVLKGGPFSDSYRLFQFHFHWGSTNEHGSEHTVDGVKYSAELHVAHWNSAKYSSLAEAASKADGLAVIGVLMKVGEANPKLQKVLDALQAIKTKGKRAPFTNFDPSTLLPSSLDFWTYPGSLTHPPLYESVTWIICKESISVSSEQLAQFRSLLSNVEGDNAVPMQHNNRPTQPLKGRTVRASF
As to the kind of experiment: stopped-flow CO2 hydrase assay, hCA I. It counts as biochemical. The procedure:
as §1, §2

Series [12] has as its system E. faecalis. As to the kind of experiment: MIC and MBC test (NF EN ISO 20776-1), E. faecalis. It counts as cell-based, Enterococcus faecalis. The following applies: for MIC: Enterococcus faecalis. The procedure:
as §3

Setting [13] is: bacteriostatic or bactericidal effect, tested up to 8 × MIC.

Structures are written as SMILES. Like-named read-outs stand apart in the source and are kept apart here.

Sequence of E. coli γ (P0A9W9 whole entry, canonical isoform): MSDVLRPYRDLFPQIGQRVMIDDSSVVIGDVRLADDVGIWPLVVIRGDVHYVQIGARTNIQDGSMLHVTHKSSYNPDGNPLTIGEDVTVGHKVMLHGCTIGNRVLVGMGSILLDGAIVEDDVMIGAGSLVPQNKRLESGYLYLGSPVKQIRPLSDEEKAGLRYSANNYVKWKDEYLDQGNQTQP
Sequence of PsCA1 (Q9I730 entry or part of it): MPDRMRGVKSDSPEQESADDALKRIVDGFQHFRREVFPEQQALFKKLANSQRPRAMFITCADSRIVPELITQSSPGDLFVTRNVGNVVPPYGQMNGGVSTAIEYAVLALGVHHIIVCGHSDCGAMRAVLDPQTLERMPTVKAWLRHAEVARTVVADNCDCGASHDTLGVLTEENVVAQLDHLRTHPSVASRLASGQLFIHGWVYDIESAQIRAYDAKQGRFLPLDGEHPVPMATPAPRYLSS

As for `CN1C(=CC=C2CCCC(C=CC3=[N+](C)c4ccc5ccccc5c4C3(C)C)=C2NCCNC(=O)Nc2ccc(S(N)(=O)=O)cc2)C(C)(C)c2c1ccc1ccccc21` [Compound 2f], in [1], the “Growth Reduction” value was 1 log reduction. Inhibition in series [2] was half-maximal at 78.8 µg/mL (IC50). The Ki (usually a measure of affinity in units of concentration, obtained from inhibition or displacement) in series [3] was found to be 124 nM; in series [4], 64.9 nM; in series [6], 625 nM; in [8] it was 94.5 nM; in [9] it was 58.3 nM; in series [11] (stopped-flow CO2 hydrase assay, pH 7.4, mean from 3 assays), 3900 nM. The MIC (usually the lowest concentration that inhibits growth of the organism) was 16 to 64 µg/mL in series [5] (Staphylococcus aureus, ATCC29213, light or radiation study, ATCC 29213, without irradiation); 2 to 8 µg/mL in series [7] (Staphylococcus epidermidis, ATCC14990, light or radiation study, ATCC 14990, without irradiation); 32 to 128 µg/mL in [12] (light or radiation study, clinical isolate, without irradiation, read-out: MIC E. faecalis); 8 to 128 µg/mL in series [12] (span over the four compounds and both strains, read-out: MIC against the E. faecalis and S. aureus strains). In series [5] (setting [13]), the “MBC S. aureus” value was “bacteriostatic”. Besides, the “MBC S. epidermidis” value in [7] (Table 3) and in [7] (setting [13]) was “bacteriostatic” in each case. The “selectivity index (SI) against S. epidermidis” value in [7] (ratio between cytotoxicity in μg/mL and the MIC value in μg/mL) is “highest SI”. Moreover, the “hemolysis activity, cytotoxicity to human red blood cells” value in series [10] is recorded as “not cytotoxic”. Further, the “selectivity for all assayed bacterial isoforms” value in [11] (bacterial CA isoforms versus the human off-target hCA I and II) is on record as about 10 fold. The “MBC E. faecalis” value in series [12] (setting [13]) was “bactericidal”.
